Where two headings read alike, the source gives them in different places.
Assays:
Format in all cases: in vivo
[1] = tested on: Triticum aestivum (TRZAS); conditions: pre-emergence, crop plant compatibility, in comparison to untreated controls
Method in brief: (§1)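 Crop injury rated visually in percent against untreated plants roughly 3 weeks after treatment (0% no effect, 100% plants dead). Compounds, as WP or EC with 0.5% additive in 600 l/ha water, were applied to the covering soil right after sowing; greenhouse growth. Suffixes a, b, c denote different dosages.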

[2] = tested on: Brassica napus (BRSNW); conditions: crop plant compatibility, in comparison to untreated controls
Method in brief: as §1

[3] = tested on: Glycine max (GLXMA); conditions: pre-emergence, crop plant compatibility, in comparison to untreated controls
Method in brief: as §1

[4] = tested on: Oryza sativa (ORYSA); conditions: pre-emergence, crop plant compatibility, in comparison to untreated controls
Method in brief: as §1

[5] = tested on: Zea mays (ZEAMX); conditions: pre-emergence, crop plant compatibility, in comparison to untreated controls
Method in brief: as §1

[6] = tested on: Brassica napus (BRSNW); experiment: Post-emergence crop plant compatibility, BRSNW; conditions: effect in comparison to untreated controls
Experimental: Seeds of monocotyledonous and dicotyledonous weeds and crop plants are placed in sandy loam in plastic or organic planting pots, covered with soil and cultivated in a greenhouse under controlled growth conditions. 2 to 3 weeks after sowing, the test plants are treated at the one-leaf stage. The compounds of the invention, formulated in the form of wettable powders (WP) or as emulsion concentrates (EC), are then sprayed onto the green parts of the plants as aqueous suspension or emulsion with addition of 0.5% additive at a water application rate of 600 l/ha (converted). After the test plants have been kept in the greenhouse under optimum growth conditions for about 3 weeks, the activity of the preparations is rated visually in comparison to untreated controls. For example, 100% activity=the plants have died, 0% activity=like control plants.
The observed effects on selected crop plants are reported here in comparison to the untreated controls (values in %). The appendices “a”, “b” and “c” give differentiation by dosage used with otherwise the same crop plants tested.

[7] = tested on: Triticum aestivum (TRZAS); conditions: crop plant compatibility, effect vs untreated controls
Method in brief: (§2)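 Percent effect on the crop was judged by eye against untreated controls, where 0% means like control and 100% means dead plants. Plants had been sprayed post-emergence at the one-leaf stage and then kept under optimum greenhouse conditions for about 3 weeks.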

[8] = tested on: Oryza sativa (ORYSA); conditions: crop plant compatibility
Method in brief: as §2

[9] = tested on: Zea mays (ZEAMX); conditions: for Post-emergence action against ZEAMX in %: crop plant compatibility, effect vs untreated controls; for Post-emergence action against ZEAMX in % (crop plant compatibility): 20 g/ha, effect in comparison to untreated controls
Method in brief: as §2

[10] = tested on: Glycine max (GLXMA); experiment: Post-emergence crop plant compatibility, GLXMA; conditions: for Post-emergence action against GLXMA in %: effect in comparison to untreated controls
Method in brief: as §2

[11] = tested on: Viola tricolor (VIOTR); experiment: Pre-emergence herbicidal action against VIOTR; conditions: 320 g/ha, Viola tricolor
Method in brief: (§3)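 Pre-emergence soil-surface spray, WP/EC formulation, 0.5% additive, 600 l/ha water, rates of 320 g/ha or lower. Greenhouse, ~3 wk. Visual score, % of untreated control (100% = plants dead, 0% = like control).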

[12] = tested on: Verconica persica (VERPE); experiment: Pre-emergence herbicidal action against VERPE; conditions: dosage 320 g/ha
Method in brief: as §3

[13] = 80 g/ha, effect in comparison to untreated controls
[14] = 20 g/ha, effect vs untreated controls

Pre-emergence action against TRZAS in % ([1]; 80 g/ha)	Pre-emergence action against TRZAS in % ([1]; 320 g/ha)	Pre-emergence action against BRSNW in % ([2]; 80 g/ha)	Pre-emergence action against BRSNW in % ([2]; 320 g/ha)	Pre-emergence action against GLXMA in % ([3]; 80 g/ha)	Pre-emergence action against GLXMA in % ([3]; 320 g/ha)	Pre-emergence action against ORYSA in % ([4]; 80 g/ha)	Pre-emergence action against ORYSA in % ([4]; 320 g/ha)	Pre-emergence action against ZEAMX in % ([5]; 80 g/ha)	Pre-emergence action against ZEAMX in % ([5]; 320 g/ha)	Post-emergence action against BRSNW in % ([6]; 80 g/ha)	Post-emergence action against TRZAS in % ([7]; 80 g/ha)	Post-emergence action against ORYSA in % [8, 13]	Post-emergence action against ZEAMX in % ([9]; 80 g/ha)	Post-emergence action against GLXMA in % ([10]; 80 g/ha)	Post-emergence action against BRSNW in % ([6]; 20 g/ha)	Post-emergence action against TRZAS in % ([7]; 20 g/ha)	Post-emergence action against ORYSA in % [8, 14]	Post-emergence action against ZEAMX in % (crop plant compatibility) [9]	Post-emergence action against GLXMA in % ([10]; 20 g/ha)	SMILES	also measured
0%	10%	0%	0%	20%	20%	20%	20%	0%	0%	10%	0%	0%	0%	0%	–	–	–	–	–	O=C(CSc1nn(-c2ccccn2)c(-c2cncc(F)c2)c1Br)NS(=O)(=O)c1ccccc1 [Example I-200]	Post-emergence action against BRSNW in % ([6]; 320 g/ha): 20%; Post-emergence action against TRZAS in % ([7]; 320 g/ha): 0%; Post-emergence action against ORYSA in % ([8]; 320 g/ha, effect in comparison to untreated controls): 0%; Post-emergence action against ZEAMX in % ([9]; 320 g/ha): 0%; Post-emergence action against GLXMA ([10]; 320 g/ha, effect vs untreated controls): 0%; Pre-emergence action against VIOTR in % [11]: 100%
0%	10%	10%	10%	–	20%	0%	10%	0%	10%	10%	0%	0%	10%	10%	0%	0%	0%	0%	0%	CCOC(=O)C1CCN(C(=O)COc2nn(-c3ccccn3)c(-c3ccc(F)nc3)c2Br)CC1 [Example I-112]	Pre-emergence action against VERPE in % [12]: 80%
20%	–	20%	20%	0%	0%	0%	0%	0%	20%	0%	0%	20%	0%	0%	0%	0%	0%	0%	0%	COC(=O)CN(C)C(=O)COc1nn(-c2ccnc(Cl)c2)c(-c2ccc(F)nc2)c1Br [III-21]	–

Source: patent publication US20240041042A1, “1-(PYRIDYL)-5-AZINYLPYRAZOLE DERIVATIVES, AND THEIR USE FOR CONTROL OF UNDESIRED PLANT GROWTH” (Bayer Aktiengesellschaft, priority 2020, published 2024)
